Legend:
P. falciparum = experiment: EC50 listed in S2 Table Metabolomics (used to set the concentration tested); format: cell-based; conditions: Plasmodium falciparum; EC50 used for Factor_XEC50 in metabolomics; read-out: EC50_nM
[1] = system: P. falciparum 3D7 trophozoites; experiment: Metabolomic fingerprint profiling LC-MS; format: cell-based, Plasmodium falciparum; design: UDP-D-glucose / ADP-D-glucose: unit not given here; conditions: for Acetyllysine / N-acetyl-L-ornithine / N-carbamoyl-L-aspartate / NADPH / dAMP / dCMP / dTDP / dTMP / dTTP / dihydroorotate / orotate / DLH / DLS/SDL/SID / PD / PEE / PVNF / 3-phosphoglycerate / ADP-D-glucose / ATP / CDP / D-sedoheptulose-1/7-phosphate / FAD / GMP / NAD+ / NADP+ / Octoluse Bisphosphate / Pyroglutamic acid / UDP-D-glucose / UDP-D-glucuronate / UDP-N-acetyl-glucosamine / UDP / UMP / UTP / a-ketoglutarate / citrate/isocitrate / cytidine / dATP / dGMP/AMP / fumarate / glucose-1/6-phosphate / glycerate / guanine / guanosine / hypoxanthine / indole / inosine / nicotinate / ornithine / phosphoenolpyruvate / pyruvate / ribose-phosphate / sarcosine/alanine / sn-glycerol-3-phosphate / succinate/methylmalonic acid / uridine / xanthosine: S2 Table Metabolomics; for Acetyllysine: metabolite Acetyllysine; for N-acetyl-L-ornithine: metabolite N-acetyl-L-ornithine; for N-carbamoyl-L-aspartate: metabolite N-carbamoyl-L-aspartate; for NADPH: metabolite NADPH; for dAMP: metabolite dAMP; for dCMP: metabolite dCMP; for dTDP: metabolite dTDP; for dTMP: metabolite dTMP; for dTTP: metabolite dTTP; for dihydroorotate: metabolite dihydroorotate; for orotate: metabolite orotate; for DLH: peptide DLH; for DLS/SDL/SID: peptide DLS/SDL/SID; for PD: peptide PD; for PEE: peptide PEE; for PVNF: peptide PVNF; for 3-phosphoglycerate: metabolite 3-phosphoglycerate; for ADP-D-glucose: metabolite ADP-D-glucose; for ATP: metabolite ATP; for CDP: metabolite CDP; for CDP / D-sedoheptulose-1/7-phosphate / GMP / Octoluse Bisphosphate / UDP / UMP / UTP / citrate/isocitrate / dGMP/AMP / fumarate / glucose-1/6-phosphate / glycerate / guanine / guanosine / inosine / pyruvate / sarcosine/alanine / succinate/methylmalonic acid / uridine / xanthosine: change in metabolite level after compound treatment; for D-sedoheptulose-1/7-phosphate: metabolite D-sedoheptulose-1/7-phosphate; for FAD: metabolite FAD; for GMP: metabolite GMP; for NAD+: metabolite NAD+; for NADP+: metabolite NADP+; for Octoluse Bisphosphate: metabolite Octoluse Bisphosphate; for Pyroglutamic acid: metabolite Pyroglutamic acid; for UDP-D-glucose: metabolite UDP-D-glucose; for UDP-D-glucuronate: metabolite UDP-D-glucuronate; for UDP-N-acetyl-glucosamine: metabolite UDP-N-acetyl-glucosamine; for UDP: metabolite UDP; for UMP: metabolite UMP; for UTP: metabolite UTP; for a-ketoglutarate: metabolite a-ketoglutarate; for citrate/isocitrate: metabolite citrate/isocitrate; for cytidine: metabolite cytidine; for dATP: metabolite dATP; for dGMP/AMP: metabolite dGMP/AMP; for fumarate: metabolite fumarate; for glucose-1/6-phosphate: metabolite glucose-1/6-phosphate; for glycerate: metabolite glycerate; for guanine: metabolite guanine; for guanosine: metabolite guanosine; for hypoxanthine: metabolite hypoxanthine; for indole: metabolite indole; for inosine: metabolite inosine; for 2_3-Diphosphoglyceric acid / 4-phosphopantothenate / 6-phospho-D-gluconate / FMN / IMP / Pyrophosphate / Sedoheptoluse bisphosphate / cyclic-AMP / glutathione disulfide / lactate / myo-inositol: metabolite level change after treatment; for nicotinate: metabolite nicotinate; for ornithine: metabolite ornithine; for phosphoenolpyruvate: metabolite phosphoenolpyruvate; for pyruvate: metabolite pyruvate; for ribose-phosphate: metabolite ribose-phosphate; for sarcosine/alanine: metabolite sarcosine/alanine; for sn-glycerol-3-phosphate: metabolite sn-glycerol-3-phosphate; for succinate/methylmalonic acid: metabolite succinate/methylmalonic acid; for uridine: metabolite uridine; for xanthosine: metabolite xanthosine

Cc1cc(C=C2SC(=Nc3ccccc3)N(C3CCCC3)C2=O)c(C)n1-c1ccc(Cl)cc1 [MMV666688] was tested, and the EC50 (P. falciparum) was 263 nM, the Acetyllysine [1] was -0.1624 and the N-acetyl-L-ornithine [1] was -0.0421. The N-carbamoyl-L-aspartate [1] was 1.4864, the NADPH [1] was 0.2408 and the dAMP [1] was 0.03218. The dCMP [1] was -0.069, the dTDP [1] was -0.4979 and the dTMP [1] was -0.4157. The dTTP [1] was -0.4815, the dihydroorotate [1] was 2.242 and the orotate [1] was -0.3391. For the same compound, the DLH [1] was -0.1014, the DLS/SDL/SID [1] was -0.07676 and the PD [1] was 0.01194. For the same compound, the PEE [1] was -0.1091, the PVNF [1] was -0.1399 and the 3-phosphoglycerate [1] was -0.02892. For the same compound, the ADP-D-glucose [1] was -0.07639, the ATP [1] was -0.1967 and the CDP [1] was -0.456. For the same compound, the D-sedoheptulose-1/7-phosphate [1] was -0.2168, the FAD [1] was -0.003318 and the GMP [1] was 0.2544. The “NAD+” value [1] was -0.2173, the “NADP+” value [1] was -0.08704 and the “Octoluse Bisphosphate” value [1] was -0.1579. The Pyroglutamic acid [1] was 0.04307, the UDP-D-glucose [1] was -0.04445 and the UDP-D-glucuronate [1] was -0.08539. For the same compound, the UDP-N-acetyl-glucosamine [1] was -0.1189, the UDP [1] was -0.6253 and the UMP [1] was -0.03143. It also gave a UTP [1] of -0.1882, an a-ketoglutarate [1] of 0.009693 and a citrate/isocitrate [1] of -0.05943. For the same compound, the cytidine [1] was 0.03268, the dATP [1] was 0.7542 and the dGMP/AMP [1] was -0.3421. The fumarate [1] was -0.03259, the glucose-1/6-phosphate [1] was 0.01665 and the glycerate [1] was 0.07227. For the same compound, the guanine [1] was 0.07709, the guanosine [1] was 0.1849 and the hypoxanthine [1] was 0.08201. It also gave an indole [1] of 0.1358, an inosine [1] of 0.04909 and a 2_3-Diphosphoglyceric acid [1] of -0.2563. For the same compound, the 4-phosphopantothenate [1] was -0.1327, the 6-phospho-D-gluconate [1] was -0.08404 and the FMN [1] was -0.1061. For the same compound, the IMP [1] was -0.002655, the Pyrophosphate [1] was 0.3465 and the Sedoheptoluse bisphosphate [1] was -0.1911. The cyclic-AMP [1] was -0.1214, the glutathione disulfide [1] was -0.05112 and the lactate [1] was 0.01618. It also gave a myo-inositol [1] of 0.01299, a nicotinate [1] of -0.0155 and an ornithine [1] of -0.1088. It also gave a phosphoenolpyruvate [1] of -0.02123, a pyruvate [1] of 0.008296 and a ribose-phosphate [1] of -0.004186. For the same compound, the sarcosine/alanine [1] was -0.1822, the sn-glycerol-3-phosphate [1] was 0.09746 and the succinate/methylmalonic acid [1] was -0.05454. The uridine [1] was -0.08058 and the xanthosine [1] was 0.111.
Compound COc1ccc(C=C2SC(=N)N(c3ccccc3OC)C2=O)cc1 [MMV666691] has an EC50 (P. falciparum) of 168 nM, an Acetyllysine [1] of -0.06113 and a N-acetyl-L-ornithine [1] of -0.04858. It also gave a N-carbamoyl-L-aspartate [1] of 3.121, an NADPH [1] of 0.04672 and a dAMP [1] of -0.1913. For the same compound, the dCMP [1] was 0.1375, the dTDP [1] was -0.4485 and the dTMP [1] was -0.268. It also gave a dTTP [1] of -0.128, a dihydroorotate [1] of 3.607 and an orotate [1] of -0.9141. The DLH [1] was 0.157, the DLS/SDL/SID [1] was 0.06441 and the PD [1] was 0.6447. It also gave a PEE [1] of 0.2278, a PVNF [1] of 0.06954 and a 3-phosphoglycerate [1] of -0.08972. The ADP-D-glucose [1] was 0.2678, the ATP [1] was 0.4861 and the CDP [1] was 0.2338. The D-sedoheptulose-1/7-phosphate [1] was 0.4395, the FAD [1] was 0.4218 and the GMP [1] was -0.5619. For the same compound, the “NAD+” value [1] was 0.2782, the “NADP+” value [1] was 0.1223 and the “Octoluse Bisphosphate” value [1] was 0.2088. The Pyroglutamic acid [1] was -0.1274, the UDP-D-glucose [1] was 0.2576 and the UDP-D-glucuronate [1] was 0.2671. For the same compound, the UDP-N-acetyl-glucosamine [1] was 0.2054, the UDP [1] was -0.5559 and the UMP [1] was -0.8809. For the same compound, the UTP [1] was -0.652, the a-ketoglutarate [1] was -0.2164 and the citrate/isocitrate [1] was -0.06979. It also gave a cytidine [1] of 0.2052, a dATP [1] of 0.5778 and a dGMP/AMP [1] of -0.07557. It also gave a fumarate [1] of 0.7045, a glucose-1/6-phosphate [1] of 0.363 and a glycerate [1] of 0.3396. For the same compound, the guanine [1] was 0.3707, the guanosine [1] was 0.4982 and the hypoxanthine [1] was 0.09969. For the same compound, the indole [1] was 0.002472, the inosine [1] was 0.382 and the 2_3-Diphosphoglyceric acid [1] was 0.1853. The 4-phosphopantothenate [1] was -0.1622, the 6-phospho-D-gluconate [1] was 0.4512 and the FMN [1] was 0.2558. For the same compound, the IMP [1] was 0.07363, the Pyrophosphate [1] was 0.16 and the Sedoheptoluse bisphosphate [1] was 0.2481. The cyclic-AMP [1] was 0.2139, the glutathione disulfide [1] was 0.5647 and the lactate [1] was 0.06184. The myo-inositol [1] was 0.08809, the nicotinate [1] was 0.1482 and the ornithine [1] was 0.1318. It also gave a phosphoenolpyruvate [1] of -0.1506, a pyruvate [1] of -0.3002 and a ribose-phosphate [1] of 0.1031. It also gave a sarcosine/alanine [1] of 0.4028, a sn-glycerol-3-phosphate [1] of 0.3221 and a succinate/methylmalonic acid [1] of 0.3253. For the same compound, the uridine [1] was -0.3469 and the xanthosine [1] was 0.6937.

Reference: paper PMC4965013, “Open Source Drug Discovery with the Malaria Box Compound Collection for Neglected Diseases and Beyond” (PLoS Pathogens, 2016)
